We go through 7 compounds from US20240246934A1, “QUINAZOLINE-BASED COMPOUND, COMPOSITION, AND APPLICATION OF QUINAZOLINE-BASED COMPOUND” (BEIJING SCITECH-MQ PHARMACEUTICALS LIMITED, priority 2021, published 2024).

Where two headings read alike, the source gives them in different places. Where only a bound is given, the exact number is not on record here.

Data set [1] is described as follows: Pharmacokinetics in SD rats, single intravenous injection and oral administration. The format is in vivo, SD rat. Particulars: for AUC(0-inf) / AUC(0-t) / Vd / half-life / bioavailability / Cmax / Tmax: SD, rat, whole blood; for bioavailability: PO 10 mg/kg vs IV 3 mg/kg, read-out: F % (bioavailability). As for the experimental part: In this assay, the pharmacokinetic characteristics of the compounds of the present application were assayed after administration of some of the compounds of the present application to SD rats by single oral administration and intravenous injection. 1. […] The mixture was stirred, vortexed and/or sonicated. Once a solution was obtained, the vehicle was gradually added to a final volume to reach the target concentration. The solution was vortexed, and sonicated to obtain a homogeneous solution. The solution was filtered through a 0.22 μm PVDF membrane. 2. […] The mixture was stirred, vortexed and/or sonicated. Once a solution was obtained, the vehicle was gradually added to a final volume to reach the target concentration. The solution was vortexed, and sonicated to obtain a homogeneous solution. […] Meanwhile, the IV group was not fasted and the PO group was fasted overnight (>12 hrs) and given food 2 hrs after drug administration. All animals had free access to water. The dosing regimen and pharmacokinetic sampling regimen are given in Table 6 and Table 7 below, respectively. […] Rats were administered according to the above regimen, and blood and brain tissue samples were collected and processed at predetermined time points (collection and processing were performed according to conventional methods in the art). […] The supernatant was diluted 2-fold with ultra-pure water, and the samples were analyzed by LC/MS. Pharmacokinetic parameters was calculated using WinNonlin software. The following pharmacokinetic parameters was calculated from the plasma drug concentration-time data: CL (clearance); Vd (apparent volume of distribution); T1/2 (elimination half-life time); Cmax (peak concentration); Tmax (time to peak); AUC (area under plasma drug concentration-time curve); MRT (mean retention time); F % (bioavailability).

Data set [2] is described as follows: Brain tissue and whole blood concentration in SD rats after oral administration. In kind it is in vivo. Particulars: rat, PO 10 mg/kg, 2 h after administration. As for the experimental part: In this assay, the pharmacokinetic characteristics of the compounds of the present application were assayed after administration of some of the compounds of the present application to SD rats by single oral administration and intravenous injection.
2. […] The mixture was stirred, vortexed and/or sonicated. Once a solution was obtained, the vehicle was gradually added to a final volume to reach the target concentration. The solution was vortexed, and sonicated to obtain a homogeneous solution.
Meanwhile, the IV group was not fasted and the PO group was fasted overnight (>12 hrs) and given food 2 hrs after drug administration. All animals had free access to water. The dosing regimen and pharmacokinetic sampling regimen are given in Table 6 and Table 7 below, respectively.
Rats were administered according to the above regimen, and blood and brain tissue samples were collected and processed at predetermined time points (collection and processing were performed according to conventional methods in the art).
The supernatant was diluted 2-fold with ultra-pure water, and the samples were analyzed by LC/MS.
Brain tissues were weighed and homogenized by adding 4-fold homogenizing solution (acetonitrile/water=1/1 v/v). […] The supernatant was diluted 2-fold with ultra-pure water, and the samples were analyzed by LC/MS.

Data set [3] deals with T1, HER2 kinase (Homo sapiens, UniProt P04626).
T1 construct: purchased Carna Biosciences 08-016
T1 sequence (P04626 23-1255): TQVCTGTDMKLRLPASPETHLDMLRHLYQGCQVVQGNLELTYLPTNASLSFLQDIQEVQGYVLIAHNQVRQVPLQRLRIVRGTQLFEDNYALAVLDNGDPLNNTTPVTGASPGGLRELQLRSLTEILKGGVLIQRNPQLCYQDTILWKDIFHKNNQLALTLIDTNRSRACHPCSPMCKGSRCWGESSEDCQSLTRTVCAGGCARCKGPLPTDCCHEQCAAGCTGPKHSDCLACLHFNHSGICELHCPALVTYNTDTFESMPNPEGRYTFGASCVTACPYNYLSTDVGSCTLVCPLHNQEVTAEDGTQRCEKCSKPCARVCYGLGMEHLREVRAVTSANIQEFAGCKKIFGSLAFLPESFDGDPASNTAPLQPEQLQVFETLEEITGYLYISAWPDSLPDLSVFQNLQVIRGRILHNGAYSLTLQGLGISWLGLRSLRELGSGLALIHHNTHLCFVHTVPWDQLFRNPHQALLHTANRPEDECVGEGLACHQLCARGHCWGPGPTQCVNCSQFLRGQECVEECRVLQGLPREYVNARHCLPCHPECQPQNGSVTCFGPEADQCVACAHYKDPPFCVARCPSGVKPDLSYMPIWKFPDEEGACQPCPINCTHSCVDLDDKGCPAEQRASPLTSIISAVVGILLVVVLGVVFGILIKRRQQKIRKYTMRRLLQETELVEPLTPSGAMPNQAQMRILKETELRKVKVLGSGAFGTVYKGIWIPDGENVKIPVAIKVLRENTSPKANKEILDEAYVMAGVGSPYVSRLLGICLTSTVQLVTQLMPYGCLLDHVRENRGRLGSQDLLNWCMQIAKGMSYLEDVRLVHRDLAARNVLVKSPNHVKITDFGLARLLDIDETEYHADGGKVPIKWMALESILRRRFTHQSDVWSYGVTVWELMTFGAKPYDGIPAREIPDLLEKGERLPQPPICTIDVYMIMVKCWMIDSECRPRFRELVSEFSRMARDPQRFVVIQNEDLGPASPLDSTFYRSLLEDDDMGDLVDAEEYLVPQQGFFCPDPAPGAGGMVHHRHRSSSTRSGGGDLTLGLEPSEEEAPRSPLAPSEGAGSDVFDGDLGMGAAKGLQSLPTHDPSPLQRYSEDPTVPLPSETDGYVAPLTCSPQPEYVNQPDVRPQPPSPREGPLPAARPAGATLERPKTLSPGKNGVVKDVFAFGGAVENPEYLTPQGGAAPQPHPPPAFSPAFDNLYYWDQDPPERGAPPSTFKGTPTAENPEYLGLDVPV
As to the kind of experiment: HER2 kinase assay (ULight/PT66 TR-FRET). The format is biochemical. As for the experimental part:
(§1) Preparation of compound solution: The assay compound was dissolved in DMSO to form a 10 mM stock solution. Prior to use, the compound was diluted to 0.25 mM in DMSO (100 times the final concentration of the diluent) and then subjected to a 3-fold concentration gradient dilution to obtain a total of 11 concentrations. The solution was diluted with buffer to a diluent with 4× the final concentration when the compound was added.
(§2) HER2 kinase assay: buffer was prepared, and 40 nM 4×Her2 kinase solution, 40 μM 4×ATP solution, and 400 nM 4×ULight™-labeled Ploy GT Peptide substrate solution were prepared using the buffer. After the preparation was completed, the enzyme was mixed with different concentrations of compounds pre-prepared by dilution, and the mixture was left to stand at room temperature for 5 min. Each concentration was performed in duplicate. The corresponding substrate and ATP were added and the mixture was reacted at room temperature for 120 minutes (with negative and positive controls). After completion of the reaction, PT66 detection antibody was added. The mixture was incubated at room temperature for 60 minutes, and then detected by Envision.
(§3) Compound concentrations and corresponding inhibition rates were input into GraphPad Prism for processing to calculate IC50 values.
Background: TR-FRET usually uses a lanthanide donor and a delayed reading to cut background.

In data set [4] the target is EGFR^WT kinase (Homo sapiens, UniProt P00533). As to the kind of experiment: EGFR^WT kinase assay (ULight/PT66 TR-FRET). The format is biochemical. As for the experimental part:
as §1
as §2, with “EGFR^WT kinase assay:” for “HER2 kinase assay:”, “prepared, and 3.48 nM 4×EGFR” for “prepared, and 40 nM 4×Her2”, “3.48 nM 4×EGFR kinase solution,” for “40 nM 4×Her2 kinase solution,”, “kinase solution, 600 μM 4×ATP” for “kinase solution, 40 μM 4×ATP”, “nM 4×ULight™-labeled JAK-1 (Try1023) Peptide substrate” for “nM 4×ULight™-labeled Ploy GT Peptide substrate”
as §3

For data set [5], the target named is Ba/F3 HER2 A775_G776insYVMA cells (Homo sapiens, UniProt P04626, DUP772-775, cells depend on it). The experiment in a line: Inhibition of cell proliferation, CTG method, Ba/F3 HER2 A775_G776insYVMA. In kind it is cell-based. The note with it: 72 hours, read-out: Ba/F3 HER2 A775-G776insYVMA IC50. From the text:
The present application examined the in vitro anti-proliferative activity of the compounds of the present disclosure against in vitro cultured BT474, NCI-N87, Ba/F3-EGFR-VIII and Ba/F3 HER2 A775_G776insYVMA and Ba/F3 EGFR D770_N771insSVD cell lines by CTG method.
Cell lines: BT474 (from the cell bank of Chinese Academy of Sciences), NCI-N87 (from ATCC), Ba/F3-EGFR-VIII, Ba/F3 HER2 A775_G776insYVMA and Ba/F3 EGFR D770_N771insSVD (all from KYinno Biotechnology (Beijing) Co., Ltd.); all of the above cells were cultured with RPMI1640 medium containing 10% fetal bovine serum, 100 U/mL penicillin, and 100 μg/mL streptomycin in the culture process.
1. The assay compound was dissolved with DMSO to form a stock solution and a gradient dilution was performed, followed by dilution with the corresponding medium to obtain a solution with 5-fold working concentration.
2. Cells in logarithmic growth phase were adjusted to specific cell densities by dilution with culture medium, and 80 μL of cell suspension was added to a 96-well plate, such that plating densities of cells of BT474, NCI-N87, Ba/F3-EGFR-VIII, Ba/F3 HER2 A775_G776insYVMA and Ba/F3 EGFR D770_N771insSVD were all 3000 cells/well. The cells of Ba/F3-EGFR-VIII, Ba/F3 HER2 A775_G776insYVMA and Ba/F3 EGFR D770_N771insSVD were used directly in the next step (treatment with compound), whereas the BT474 and NCI-N87 needed to be cultured overnight in a 37° C., 5% carbon dioxide gas incubator to adhere to the wall, and then treated with compounds.
3. […] The highest concentration of the assayed compound was 10 μM, 4-fold serial dilution, a total of 9 concentrations, and duplicate wells. A control group without compound was also set up.
4. The cells were cultured for another 72 hours, and then cell viability was detected by CTG assay kit. Signal values were read with a multifunctional plate reader (Perkin Elmer). GraphPad Prism software was used to create a dose-response curve and IC50 was calculated.

The mark [6] stands for this setting: NA: Exposure was too low to be counted.
The mark [7] stands for this setting: PO 10 mg/kg, NA: Exposure was too low to be counted.

Chain of Ba/F3 HER2 A775_G776insYVMA cells (P04626 with tags, fused parts or gaps DUP772-775): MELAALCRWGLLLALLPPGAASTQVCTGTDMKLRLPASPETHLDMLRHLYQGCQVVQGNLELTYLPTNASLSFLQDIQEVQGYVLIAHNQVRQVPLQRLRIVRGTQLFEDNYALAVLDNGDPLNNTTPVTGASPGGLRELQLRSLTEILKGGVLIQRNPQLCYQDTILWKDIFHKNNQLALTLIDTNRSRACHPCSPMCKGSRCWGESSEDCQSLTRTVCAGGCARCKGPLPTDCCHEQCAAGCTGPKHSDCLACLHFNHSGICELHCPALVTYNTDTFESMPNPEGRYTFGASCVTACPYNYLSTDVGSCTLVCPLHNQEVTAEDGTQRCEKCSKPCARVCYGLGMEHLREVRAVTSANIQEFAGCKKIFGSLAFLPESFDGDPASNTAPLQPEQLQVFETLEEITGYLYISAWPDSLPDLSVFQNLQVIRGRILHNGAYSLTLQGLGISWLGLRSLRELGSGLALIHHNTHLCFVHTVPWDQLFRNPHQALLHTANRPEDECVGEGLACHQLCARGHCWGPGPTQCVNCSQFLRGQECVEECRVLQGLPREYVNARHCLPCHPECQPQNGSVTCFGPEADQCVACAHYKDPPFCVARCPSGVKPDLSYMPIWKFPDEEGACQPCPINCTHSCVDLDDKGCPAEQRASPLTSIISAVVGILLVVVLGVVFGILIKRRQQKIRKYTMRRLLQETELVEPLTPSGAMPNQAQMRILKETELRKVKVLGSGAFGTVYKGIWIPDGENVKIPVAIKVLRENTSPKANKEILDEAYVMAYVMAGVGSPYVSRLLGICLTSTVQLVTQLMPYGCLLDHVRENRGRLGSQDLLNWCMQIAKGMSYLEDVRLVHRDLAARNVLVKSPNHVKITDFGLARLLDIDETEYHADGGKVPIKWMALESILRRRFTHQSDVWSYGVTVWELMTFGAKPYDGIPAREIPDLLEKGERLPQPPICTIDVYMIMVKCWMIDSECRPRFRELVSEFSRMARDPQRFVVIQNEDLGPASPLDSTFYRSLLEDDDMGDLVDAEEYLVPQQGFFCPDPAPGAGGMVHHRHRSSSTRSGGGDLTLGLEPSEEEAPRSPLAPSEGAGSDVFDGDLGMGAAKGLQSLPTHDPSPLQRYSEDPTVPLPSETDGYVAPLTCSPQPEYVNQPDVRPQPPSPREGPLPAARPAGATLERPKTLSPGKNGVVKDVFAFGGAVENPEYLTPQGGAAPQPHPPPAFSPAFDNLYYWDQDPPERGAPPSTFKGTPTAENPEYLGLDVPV
Chain of EGFR^WT kinase (P00533 25-1210): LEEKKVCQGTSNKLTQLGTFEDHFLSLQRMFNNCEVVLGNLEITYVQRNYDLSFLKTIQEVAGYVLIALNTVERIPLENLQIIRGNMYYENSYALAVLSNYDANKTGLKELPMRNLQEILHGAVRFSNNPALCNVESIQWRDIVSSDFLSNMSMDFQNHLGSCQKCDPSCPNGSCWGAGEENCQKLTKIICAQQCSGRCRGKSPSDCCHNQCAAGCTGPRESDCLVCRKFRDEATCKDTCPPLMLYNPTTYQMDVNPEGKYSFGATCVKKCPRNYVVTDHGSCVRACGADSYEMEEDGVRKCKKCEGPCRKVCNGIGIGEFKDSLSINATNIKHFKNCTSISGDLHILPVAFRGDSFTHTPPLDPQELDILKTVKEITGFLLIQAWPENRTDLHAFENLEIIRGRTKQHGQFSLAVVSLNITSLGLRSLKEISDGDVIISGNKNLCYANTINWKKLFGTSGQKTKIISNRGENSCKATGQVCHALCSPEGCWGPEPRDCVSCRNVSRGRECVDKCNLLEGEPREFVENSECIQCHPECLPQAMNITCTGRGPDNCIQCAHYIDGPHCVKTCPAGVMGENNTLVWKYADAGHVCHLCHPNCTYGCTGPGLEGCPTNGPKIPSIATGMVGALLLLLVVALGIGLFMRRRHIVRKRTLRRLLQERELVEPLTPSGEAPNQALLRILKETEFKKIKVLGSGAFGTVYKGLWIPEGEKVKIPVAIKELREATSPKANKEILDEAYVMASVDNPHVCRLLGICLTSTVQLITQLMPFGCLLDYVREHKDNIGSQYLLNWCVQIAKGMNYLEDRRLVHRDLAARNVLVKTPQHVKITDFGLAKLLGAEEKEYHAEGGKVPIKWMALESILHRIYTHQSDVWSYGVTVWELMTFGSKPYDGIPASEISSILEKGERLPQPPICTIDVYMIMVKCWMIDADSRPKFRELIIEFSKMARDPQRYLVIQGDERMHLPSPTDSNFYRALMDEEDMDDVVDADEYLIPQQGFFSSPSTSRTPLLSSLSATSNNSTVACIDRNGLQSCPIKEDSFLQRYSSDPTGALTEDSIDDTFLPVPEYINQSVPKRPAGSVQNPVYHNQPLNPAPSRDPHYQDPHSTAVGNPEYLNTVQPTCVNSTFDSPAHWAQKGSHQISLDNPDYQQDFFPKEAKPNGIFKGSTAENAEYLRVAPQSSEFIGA

In data set [1] (IV 3 mg/kg), `CN1CCC[C@H]1/C=C/C(=O)Nc1ccc2ncnc(Nc3ccc(OCc4ccccn4)c(Cl)c3)c2c1` [Control compound 2, reference compound] registered a Cl_obs of 84.3 ± 5.1 mL/min/kg, an AUC(0-inf) of 595 ± 37 ng·h/mL, an AUC(0-t) of 565 ± 40 ng·h/mL and a Vd of 47.5 ± 7.5 L/kg. The half-life in data set [1] (IV 3 mg/kg) was 6.5 ± 0.78 h. Besides, the bioavailability in data set [1] (setting [6]) was determined as 0.992%. Besides, in data set [1] (setting [7]), the AUC(0-inf) came to 23.8 ng·h/mL, the AUC(0-t) is 18.7 ng·h/mL, the peak level (Cmax) was 6.72 ng/mL and the Tmax amounted to 0.25 h. Besides, the half-life in data set [1] (setting [7]) was 2.39 h. Further, the “oral absorption (in words)” value in data set [1] (administrated orally) is “hardly absorbed”. Also, in data set [2] (in vivo, whole blood, read-out: Blood drug concentration), the concentration at 2 h amounted to 1.14 ng/mL.
Take `CCOc1c(NC(=O)/C=C/[C@H]2CCCN2CC)ccc2ncnc(Nc3ccc(OCc4cccc(F)c4)c(Cl)c3)c12` [Example 19, (R,E)-N-(4-((3-chloro-4-(3-fluorobenzyloxy)phenyl)amino)-5-ethoxyquinazolin-6-yl)-3-(1-ethylpyrrolidin-2-yl)acrylamide]: the IC50 in data set [3] and in data set [4] was less than 10 nM in each case. Besides, in data set [5], the GI50 lay in the range of 1 to 5 nM.
Consider `CCOc1c(NC(=O)/C=C/[C@H]2CCCN2C)ccc2ncnc(Nc3ccc(OCc4ccccn4)c(F)c3)c12` [Example 21, (R,E)-N-(5-ethoxy-4-((3-fluoro-4-(pyridin-2-ylmethoxy)phenyl)amino)quinazolin-6-yl)-3-(1-methylpyrrolidine-2-yl)acrylamide], for which the IC50 in data set [3] and in data set [4] was less than 10 nM each time. Besides, in data set [5], the GI50 is 1 to 5 nM.
For the compound `COCCCNc1c(NC(=O)/C=C/[C@H]2CCCN2C)ccc2ncnc(Nc3ccc(OCc4ccccn4)c(Cl)c3)c12` [Example 32, (R,E)-N-(4-((3-chloro-4-(pyridin-2-ylmethoxy)phenyl)amino)-5-((3-methoxypropyl)amino)quinazolin-6-yl)-3-(1-methylpyrrolidin-2-yl)acrylamide], the IC50 in data set [3] is less than 10 nM; in data set [4], 100 to 1000 nM. The GI50 in data set [5] lay within 1 to 5 nM.
In the case of `CCCOc1c(NC(=O)/C=C/[C@H]2CCCN2C)ccc2ncnc(Nc3ccc(OCc4ccccn4)c(Cl)c3)c12` [Example 13, (R,E)-N-(4-((3-chloro-4-(pyridin-2-ylmethoxy)phenyl)amino)-5-propoxyquinazolin-6-yl)-3-(1-methylpyrrolidin-2-yl)acrylamide], the IC50 in data set [3] was less than 10 nM. Besides, in data set [1] (IV 3 mg/kg), the Cl_obs turned out to be 52.3 ± 5.7 mL/min/kg, the AUC(0-inf) stood at 964 ± 104 ng·h/mL, the AUC(0-t) came to 953 ± 105 ng·h/mL and the Vd amounted to 18.7 ± 2.9 L/kg. Further, the half-life in data set [1] (IV 3 mg/kg) was 4.12 ± 0.22 h. Besides, the bioavailability in data set [1] (setting [6]) is 23.3 ± 7.4%. Moreover, in data set [1] (setting [7]), the AUC(0-inf) turned out to be 750 ± 238 ng·h/mL, the AUC(0-t) came to 719 ± 233 ng·h/mL, the highest level (Cmax) was 53.7 ± 12.4 ng/mL and the Tmax was determined as 2 h. Further, the half-life in data set [1] (setting [7]) was 5.42 ± 0.34 h. Besides, the IC50 in data set [4] is less than 10 nM. Besides, the GI50 in data set [5] lay within 1 to 5 nM. The concentration at 2 h in data set [2] (whole blood, read-out: Blood drug concentration) came out at 273 ng/mL. The Kp at 2 h in data set [2] (brain / whole blood, read-out: Brain tissue/blood ratio) stood at 0.465. For the same compound, in data set [2] (brain, NA: Exposure was too low to be counted, read-out: Brain tissue concentration), the concentration at 2 h was 127 ng/g.
Turning to `CCOc1c(NC(=O)/C=C/[C@H]2CCCN2CC)ccc2ncnc(Nc3ccc(OCc4ccccn4)c(Cl)c3)c12` [Example 20, (R,E)-N-(4-((3-chloro-4-(pyridin-2-ylmethoxy)phenyl)amino)-5-ethoxyquinazolin-6-yl)-3-(1-ethylpyrrolidin-2-yl)acrylamide], the IC50 in data set [3] and in data set [4] was less than 10 nM in each case. Moreover, the GI50 in data set [5] lay within 1 to 5 nM.
Regarding `CN1CCC[C@@H]1/C=C/C(=O)Nc1ccc2ncnc(Nc3ccc(OCc4ccccn4)c(Cl)c3)c2c1OC1CC1` [Example 37, (R,E)-N-(4-((3-chloro-4-(pyridin-2-ylmethoxy)phenyl)amino)-5-cyclopropoxyquinazolin-6-yl)-3-(1-methylpyrrolidin-2-yl)acrylamide], the IC50 is less than 10 nM in data set [3] and 10 to 100 nM in data set [4]. Further, the GI50 in data set [5] was 1 to 5 nM.

For orientation: AUC(0-inf) means total exposure, with the tail of the curve extrapolated. The low end stands for low exposure, the high end for high exposure. What is called AUC(0-t) is exposure summed from dosing to a finite time, without extrapolation to infinity. Lower therefore signals less exposure. The half-life is the time in which the quantity being followed falls by half. A low value points to fast loss. Broadly, the bioavailability is the share of a dose that reaches the circulation, judged against a reference dose that is usually intravenous. By Cmax is commonly meant the maximum level reached in the sampled fluid or tissue. Usually Tmax stands for the time from dosing to the highest level. By IC50 is commonly meant the midpoint of a concentration-inhibition curve. Read a low IC50 as greater potency in that assay.
